Assay results from PubChem BioAssay (NCI).
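How tested: cells in 96-well plates exposed to compound for 48 hours at five concentrations. At the TGI there is no net growth.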

Experiments:
Assay in all cases: NCI tumour cell line growth inhibition, 48 h
ACHN renal = test system: ACHN renal
SK-MEL-2 melanoma = test system: SK-MEL-2 melanoma
SF-539 CNS = test system: SF-539 CNS
SNB-19 CNS = test system: SNB-19 CNS
SNB-75 CNS = test system: SNB-75 CNS
HL-60(TB) leukemia = test system: HL-60(TB) leukemia
NCI-H226 lung = test system: NCI-H226 lung
OVCAR-5 ovarian = test system: OVCAR-5 ovarian
UO-31 renal = test system: UO-31 renal
IGROV1 ovarian = test system: IGROV1 ovarian
HT29 colon = test system: HT29 colon
RPMI-8226 leukemia = test system: RPMI-8226 leukemia
CCRF-CEM leukemia = test system: CCRF-CEM leukemia
SK-MEL-28 melanoma = test system: SK-MEL-28 melanoma
CAKI-1 renal = test system: CAKI-1 renal
HCT-15 colon = test system: HCT-15 colon
M14 melanoma = test system: M14 melanoma
HCC-2998 colon = test system: HCC-2998 colon
SN12C renal = test system: SN12C renal
SK-OV-3 ovarian = test system: SK-OV-3 ovarian

Row | Structure (SMILES) | TGI (ACHN renal) [µM] | TGI (SK-MEL-2 melanoma) [µM] | TGI (SF-539 CNS) [µM] | TGI (SNB-19 CNS) [µM] | TGI (SNB-75 CNS) [µM] | TGI (HL-60(TB) leukemia) [µM] | TGI (NCI-H226 lung) [µM] | TGI (OVCAR-5 ovarian) [µM] | TGI (UO-31 renal) [µM] | TGI (IGROV1 ovarian) [µM] | TGI (HT29 colon) [µM] | TGI (RPMI-8226 leukemia) [µM] | TGI (CCRF-CEM leukemia) [µM] | TGI (SK-MEL-28 melanoma) [µM] | TGI (CAKI-1 renal) [µM] | TGI (HCT-15 colon) [µM] | TGI (M14 melanoma) [µM] | TGI (HCC-2998 colon) [µM] | TGI (SN12C renal) [µM] | TGI (SK-OV-3 ovarian) [µM]
1 | CCCn1cc2c(=O)[nH]c(SC)nc2n1 | > 100 | > 100 | > 100 | > 100 | > 100 | > 100 | 89.1 | > 100 | > 100 | > 100 | > 100 | > 100 | > 100 | > 100 | > 100 | > 100 | > 100 | > 100 | > 100 | 
2 | Cc1cn(C2CC(n3cc(Cn4ccc(=O)[nH]c4=O)nn3)C(CO)O2)c(=O)[nH]c1=O (stereo unspecified) | > 100 | > 100 | > 100 | > 100 | > 100 | > 100 | > 100 | > 100 | > 100 |  |  | > 100 | > 100 | > 100 | > 100 | > 100 | > 100 | > 100 | > 100 | > 100
3 | CN(C)Cc1cc(Cl)c(O)c(CN(C)C)c1 | > 100 | > 100 |  | > 100 | > 100 | > 100 | > 100 | > 100 | > 100 | > 100 | > 100 | > 100 | > 100 | > 100 | > 100 | > 100 | > 100 | > 100 | > 100 | > 100
4 | Cc1ncn(-c2ccccc2O)c1C | > 100 | > 100 | > 100 | > 100 | > 100 | > 100 | > 100 | > 100 | > 100 | > 100 | > 100 | > 100 | > 100 | > 100 | > 100 | > 100 | > 100 |  | > 100 | > 100
5 | C=C(/C=C/C=C(\C)CCC=C(C)C)[C@@H]1CC[C@]2([C@H](CCCO)/C(=C(/C)C=O)CC[C@]2(C)O)[C@@H]1O | > 100 | 38.5 | 25.1 | 52.7 | 99.4 | 35.4 | 56.2 | > 100 | 48 | 81.1 | 30.9 |  | 48.8 | 28.4 | 60.9 | 34.2 | 48.2 | 35.6 | 31.4 | > 100
6 | O=C1c2ccccc2N(O)C1(c1ccccc1)C1CCCC=C1N1CCOCC1 (stereo unspecified) | > 100 |  | > 100 | > 100 | > 100 | > 100 | > 100 | > 100 | > 100 | > 100 | > 100 | > 100 | > 100 | > 100 | > 100 | > 100 | > 100 | > 100 | > 100 | > 100
7 | CC(C)(C)c1ccc2c(c1)OP1(Oc3c(Cl)cc(Cl)c4cccnc34)(O2)Oc2ccc(C(C)(C)C)cc2O1 |  | 22.8 | 21.2 | 22.8 | 32.2 | 10.1 | 29.1 | 27.5 | 19.6 | 25.7 | 19.5 | 19 | > 100 | 28.4 | 9.58 | 19.9 |  | 23.4 | 30.8 | 16.5
